A melting point compilation (Tetko et al.)

SMILES	melting point
Oc1ccc(Sc2ccc(O)cc2O)c(O)c1	173 to 177 °C
Cc1cc(Cc2cc(C)cc(C(C)(C)C)c2O)c(O)c(C(C)(C)C)c1	123 °C
Oc1ccc(Oc2ccc(O)cc2)cc1	163 to 168 °C
CC1CCCCN1 (stereo not given)	-5 to -4 °C
O=c1c(Nc2ccccc2)c(Nc2ccccc2)c1=O	270 °C
O=C1NC(=O)C(=NNc2ccccc2)C(=O)N1	309 to 310 °C
N#CCCSCCC#N	24 to 25 °C
FCC(F)F	-84 °C
C=C1C(C)C2C(Cc3ccccc3)NC(=O)C23OC(=O)C=CC(=O)CCCC(C)CC=CC3C1O (stereo not given)	193 to 195 °C
ClC1=CC(c2ccccc2)c2ccccc21 (stereo not given)	81 °C
c1ccc2sc(SN(C3CCCCC3)C3CCCCC3)nc2c1	99.8 °C
CC(C)[C@@H]1C(=O)N(c2ccccc2)[C@@H]1c1ccccc1	169 °C
O=c1on(-c2ccccc2)c(Br)c1-c1ccccc1	165 to 166 °C
CC(C)=C1OC(=O)N(c2cc(OC3CCCC3)c(Cl)cc2F)C1=O	104 °C
O=C1Nc2c(Cl)ccc(Cl)c2C1=O	251 to 254 °C
ON=Cc1cc(Br)c(O)c(Br)c1	198 to 201 °C
Nc1cc(F)ccc1O	140 °C
Oc1c(O)c(Br)c(Br)c(Br)c1Br	191 °C
CC(=O)C1(O)CCC2(C)C(CCC3C4CCC(=O)C4(C)CCC32)C1 (stereo not given)	211 to 212 °C
Cc1ccc(C)c(C#N)c1	13 to 14 °C
N#Cc1c(Cl)cccc1Oc1ccccc1	61 °C
O=C(O)C(c1ccc(Cl)cc1)c1ccc(Cl)cc1	168 °C
O=C(O)C1CCC(c2ccccc2)CC1C(=O)O (stereo not given)	185 to 190 °C
Nc1nc(SCc2ccc([N+](=O)[O-])cc2)c2ncn(C3OC(CO)C(O)C3O)c2n1 (stereo not given)	203 to 205 °C
Brc1cc2c(cc1Br)Oc1cc(Br)c(Br)cc1O2	334 °C

SMILES	melting point
N#Cc1ccc(N)c(Br)c1	106 to 111 °C
CC(Oc1ccc(Oc2ncc(C(F)(F)F)cc2Cl)cc1)C(=O)O (stereo not given)	108 °C
CC(C)Oc1cccc(NC(=O)c2ccccc2C(F)(F)F)c1	105 °C
Cc1ccc(C2(c3ccc(C)o3)C(=O)Nc3ccccc32)o1	216 °C
N=c1oc2ccccc2cc1C(N)=S	254 °C
O=C1C=C(Cl)C(=O)O1	33 °C
N=CN	81 °C
COc1cc(/C=C/c2ccc([N+](=O)[O-])cc2[N+](=O)[O-])ccc1O	191 °C
O=C(O)C(F)(F)C(F)(F)C(F)(F)C(F)(C(F)(F)F)C(F)(F)F	13 °C
Cc1cc(C)c(C(=O)P(=O)(c2ccccc2)c2ccccc2)c(C)c1	90 °C
Cc1ccc(O)c2c1CCC2	82 to 83 °C
O=C1OC(c2ccccn2)Cc2ccccc21 (stereo not given)	156 °C
OC(O)C(F)(F)C(F)(F)C(F)(F)C(F)(F)C(F)(F)C(F)(F)C(F)(F)C(F)(F)F	91 to 94 °C
Cc1nc(-c2ccc(C=O)cc2)cs1	101 to 102 °C
O=C1OS(=O)(=O)c2ccccc21	130 °C
Cc1ccc(C#N)c(C#N)c1	118 to 121 °C
O=C=Nc1cccc(-n2cccc2)c1	46 to 47 °C
O=C(C1=NN(c2ccccc2)C2C(=O)N(c3ccc(F)cc3)C(=O)C12)c1ccccc1 (stereo not given)	211 °C
O=c1[nH]c2scc(-c3ccccc3)c2c(=O)n1-c1ccc(F)cc1	300 to 302 °C
Nc1c(Br)cc(Br)cc1Cc1ccccc1	195 °C
Cc1nc(/C(C#N)=N/Nc2ccccc2[N+](=O)[O-])sc1/N=N/c1ccccc1	210 °C
FC(Cl)(Cl)c1ccccc1	-26.8 °C
N#Cc1ccccc1COc1ccccc1	62 to 64 °C
O=c1cc(-c2ccccc2)oc2cccc(O)c12	158 °C
CC(C)(C)P(C(C)(C)C)C(C)(C)C	30 °C

Now from value to molecule:

melting point	SMILES
38 to 40 °C	CC(=O)c1ccc(Cc2ccccc2)cc1
146 °C	CC(C)CCOc1ccc(NC(=S)Nc2ccc(OCCC(C)C)cc2)cc1
145 °C	COc1c(C(C)(C)C(C)C)c(OC(C)=O)c(OC(C)=O)c2ccccc12
144 to 148 °C	CC(C)(C)c1cc(C(=O)c2ccccc2)c(O)cc1O
103 to 104 °C	Cn1c(CO)cc2sccc21
155 °C	N#CC(=Cc1ccccc1)C(N)=O
183 °C	Cc1oc(-c2ccccc2)cc1C(=O)O
120 °C	Nc1ccc(CO)cn1
42 °C	CCS(=O)(=O)c1ccccc1
118 °C	CC(=O)Nc1ccc(C)cc1Br
146 to 148 °C	CCOC1Oc2ccc(C)cc2C(=O)/C1=C/Nc1nc2ccc(Cl)cc2s1 (stereo not given)
166 °C	O=C(O)C=CCCCCCCCCC(=O)O
150 to 153 °C	CCc1cc(C(F)(F)F)c2c([nH]c3ccccc32)c1CO
256 to 258 °C	NC(C(=O)O)(c1ccccc1)C1CCC1 (stereo not given)
98 °C	CC(=O)OCC1OC(c2nn[nH]n2)C(N2C(=O)c3ccccc3C2=O)C(OC(C)=O)C1OC(C)=O (stereo not given)
165 to 167 °C	CC12CCC(/C(=C/Nc3ccccc3)C1=O)C2(C)C (stereo not given)
231 to 234 °C	Cc1ccc(S(=O)(=O)NCCCC[C@H](N)C(=O)O)cc1
118 to 122 °C	CC(C)(C)OC(=O)N1CCCC[C@@H]1C(=O)O
150 °C	CNc1ccc2cc3ccc(N(C)S(C)(=O)=O)cc3nc2c1CO
97 to 99 °C	O=C(O)CCc1ccc(Cl)c(Cl)c1

melting point	SMILES
120 °C	O=C(NCCc1ccccn1)c1cc([N+](=O)[O-])cc([N+](=O)[O-])c1
62 to 64 °C	CC(=O)c1c(-c2cccc(Cl)c2Cl)noc1C
-64.3 °C	CCCCCC(=O)OCCCC
146 to 148 °C	CC(C)(C)c1cc(N)c(C(N)=O)s1
-11 °C	CCCCCCC(O)CCC (stereo not given)
209 to 211 °C	CCOC(=O)Cn1cc(Cl)c(=O)c(Cl)c1
126 to 127 °C	Cn1ccc(-c2cccc(C(=O)Oc3c(F)c(F)c(F)c(F)c3F)c2)n1
22 °C	O=C(CBr)c1cccc(C(F)(F)F)c1
97.5 °C	OCCNCCNCCO
8 °C	CCCCCCCCOc1ccccc1
255 °C	NC(=S)Nc1ccc(C(=O)O)cc1
171 to 172 °C	CCOC(=O)/C(C#N)=C/c1ccc(O)cc1
84 °C	CCCc1nc(OC(C)=O)n(-c2ccccc2)n1
146 to 148 °C	CCCCc1ccc(NC(=O)c2ccc(OC)cc2)cc1
220 to 222 °C	COc1ccc2c(c1)/C(=N/Nc1ccc([N+](=O)[O-])cc1[N+](=O)[O-])C2
118 °C	O=C(O)Cc1cccc(F)c1F
82 to 83 °C	CCOC(=O)c1cc(-c2ccc(C)cc2)oc1C
186 °C	NC(C(=O)O)C(O)c1ccccc1 (racemic)
174 °C	CCOC(=O)C(=Cc1cc(N)cc(C=C(C(=O)OCC)C(=O)OCC)c1)C(=O)OCC
45 to 48 °C	CCCc1c(NCC)ccc(C(C)=O)c1O
